Measured values taken from patent US20230266302A1, “SYNTHESIS AND USE OF N-BENZYL SULFONAMIDES” (THE UNIVERSITY OF TULSA, priority 2020, published 2023).

test system: PC3 (prostate cancer); assay: ATP level assay (CellTiter-Glo), percent of control; format: cell-based; conditions: 2 h; compound alone, 100 uM, two hour incubation, control DMSO; read-out: POC (percent of control) PC3

Structure (SMILES) | activity at 100 µM [%]
Cc1cccc2c(CNS(=O)(=O)c3ccc(Cl)cc3)c[nH]c12 [Compound 28, 4-chloro-N-[(7-methyl-1H-indol-3-yl)methyl]benzenesulfonamide] | 31.8

same assay, conditions: compound 100 uM + 2DG (about 10-20 mM), two hour incubation

Structure (SMILES) | POC (percent of control) PC3
Cc1cccc2c(CNS(=O)(=O)c3ccc(Cl)cc3)c[nH]c12 [Compound 28, 4-chloro-N-[(7-methyl-1H-indol-3-yl)methyl]benzenesulfonamide] | 56.5% of control

same assay, conditions: compound 100 uM + rotenone (approximately 1.25 μM), two hour incubation

Structure (SMILES) | POC (percent of control) PC3
Cc1cccc2c(CNS(=O)(=O)c3ccc(Cl)cc3)c[nH]c12 [Compound 28, 4-chloro-N-[(7-methyl-1H-indol-3-yl)methyl]benzenesulfonamide] | 64.8% of control

test system: HDF (normal cells); assay: as above; format: cell-based; conditions: 2 h; compound alone, 100 uM, two hour incubation, control DMSO; read-out: POC (percent of control) HDF

Structure (SMILES) | activity at 100 µM [%]
Cc1cccc2c(CNS(=O)(=O)c3ccc(Cl)cc3)c[nH]c12 [Compound 28, 4-chloro-N-[(7-methyl-1H-indol-3-yl)methyl]benzenesulfonamide] | 74.9

same assay, conditions: compound 100 uM + 2DG (about 10-20 mM), two hour incubation

Structure (SMILES) | POC (percent of control) HDF
Cc1cccc2c(CNS(=O)(=O)c3ccc(Cl)cc3)c[nH]c12 [Compound 28, 4-chloro-N-[(7-methyl-1H-indol-3-yl)methyl]benzenesulfonamide] | 56.1% of control

same assay, conditions: compound 100 uM + rotenone (approximately 1.25 μM), two hour incubation

Structure (SMILES) | POC (percent of control) HDF
Cc1cccc2c(CNS(=O)(=O)c3ccc(Cl)cc3)c[nH]c12 [Compound 28, 4-chloro-N-[(7-methyl-1H-indol-3-yl)methyl]benzenesulfonamide] | 62.2% of control

test system: HeLa (cervical cancer); assay: as above; format: cell-based; conditions: Homo sapiens, HeLa, 2 h; compound alone, 100 uM, two hour incubation, control DMSO; read-out: POC (percent of control) HeLa

Structure (SMILES) | activity at 100 µM [%]
Cc1cccc2c(CNS(=O)(=O)c3ccc(Cl)cc3)c[nH]c12 [Compound 28, 4-chloro-N-[(7-methyl-1H-indol-3-yl)methyl]benzenesulfonamide] | 57.7

same assay, conditions: compound 100 uM + 2DG (about 10-20 mM), two hour incubation

Structure (SMILES) | POC (percent of control) HeLa
Cc1cccc2c(CNS(=O)(=O)c3ccc(Cl)cc3)c[nH]c12 [Compound 28, 4-chloro-N-[(7-methyl-1H-indol-3-yl)methyl]benzenesulfonamide] | 65.6% of control

same assay, conditions: compound 100 uM + rotenone (approximately 1.25 μM), two hour incubation

Structure (SMILES) | POC (percent of control) HeLa
Cc1cccc2c(CNS(=O)(=O)c3ccc(Cl)cc3)c[nH]c12 [Compound 28, 4-chloro-N-[(7-methyl-1H-indol-3-yl)methyl]benzenesulfonamide] | 96.1% of control

test system: SkBr3 (breast cancer); assay: as above; format: cell-based; conditions: Homo sapiens, SK-BR-3, 2 h; compound alone, 100 uM, two hour incubation, control DMSO; read-out: POC (percent of control) SkBr3

Structure (SMILES) | activity at 100 µM [%]
Cc1cccc2c(CNS(=O)(=O)c3ccc(Cl)cc3)c[nH]c12 [Compound 28, 4-chloro-N-[(7-methyl-1H-indol-3-yl)methyl]benzenesulfonamide] | 102

same assay, conditions: compound 100 uM + 2DG (about 10-20 mM), two hour incubation

Structure (SMILES) | POC (percent of control) SkBr3
Cc1cccc2c(CNS(=O)(=O)c3ccc(Cl)cc3)c[nH]c12 [Compound 28, 4-chloro-N-[(7-methyl-1H-indol-3-yl)methyl]benzenesulfonamide] | 79.6% of control

same assay, conditions: compound 100 uM + rotenone (approximately 1.25 μM), two hour incubation

Structure (SMILES) | POC (percent of control) SkBr3
Cc1cccc2c(CNS(=O)(=O)c3ccc(Cl)cc3)c[nH]c12 [Compound 28, 4-chloro-N-[(7-methyl-1H-indol-3-yl)methyl]benzenesulfonamide] | 87.3% of control

test system: NCI-H196 (lung cancer); assay: as above; format: cell-based; conditions: NCI-H196, 2 h; compound alone, 100 uM, two hour incubation, control DMSO; read-out: POC (percent of control) NCI-H196

Structure (SMILES) | activity at 100 µM [%]
Cc1cccc2c(CNS(=O)(=O)c3ccc(Cl)cc3)c[nH]c12 [Compound 28, 4-chloro-N-[(7-methyl-1H-indol-3-yl)methyl]benzenesulfonamide] | 129

same assay, conditions: compound 100 uM + 2DG (about 10-20 mM), two hour incubation

Structure (SMILES) | POC (percent of control) NCI-H196
Cc1cccc2c(CNS(=O)(=O)c3ccc(Cl)cc3)c[nH]c12 [Compound 28, 4-chloro-N-[(7-methyl-1H-indol-3-yl)methyl]benzenesulfonamide] | 40.4% of control

same assay, conditions: compound 100 uM + rotenone (approximately 1.25 μM), two hour incubation

Structure (SMILES) | POC (percent of control) NCI-H196
Cc1cccc2c(CNS(=O)(=O)c3ccc(Cl)cc3)c[nH]c12 [Compound 28, 4-chloro-N-[(7-methyl-1H-indol-3-yl)methyl]benzenesulfonamide] | 60.6% of control

test system: MDA-MB (breast cancer); assay: as above; format: cell-based; conditions: 2 h; compound alone, 100 uM, two hour incubation, control DMSO; read-out: POC (percent of control) MDA-MB

Structure (SMILES) | activity at 100 µM [%]
Cc1cccc2c(CNS(=O)(=O)c3ccc(Cl)cc3)c[nH]c12 [Compound 28, 4-chloro-N-[(7-methyl-1H-indol-3-yl)methyl]benzenesulfonamide] | 77.4

same assay, conditions: compound 100 uM + 2DG (about 10-20 mM), two hour incubation

Structure (SMILES) | POC (percent of control) MDA-MB
Cc1cccc2c(CNS(=O)(=O)c3ccc(Cl)cc3)c[nH]c12 [Compound 28, 4-chloro-N-[(7-methyl-1H-indol-3-yl)methyl]benzenesulfonamide] | 45.5% of control

same assay, conditions: compound 100 uM + rotenone (approximately 1.25 μM), two hour incubation

Structure (SMILES) | POC (percent of control) MDA-MB
Cc1cccc2c(CNS(=O)(=O)c3ccc(Cl)cc3)c[nH]c12 [Compound 28, 4-chloro-N-[(7-methyl-1H-indol-3-yl)methyl]benzenesulfonamide] | 78.1% of control

test system: MCF10A (non-cancerous breast); assay: as above; format: cell-based; conditions: Homo sapiens, MCF-10A, 2 h; compound alone, 100 uM, two hour incubation, control DMSO; read-out: POC (percent of control) MCF10A

Structure (SMILES) | activity at 100 µM [%]
Cc1cccc2c(CNS(=O)(=O)c3ccc(Cl)cc3)c[nH]c12 [Compound 28, 4-chloro-N-[(7-methyl-1H-indol-3-yl)methyl]benzenesulfonamide] | 72.8

same assay, conditions: compound 100 uM + 2DG (about 10-20 mM), two hour incubation

Structure (SMILES) | POC (percent of control) MCF10A
Cc1cccc2c(CNS(=O)(=O)c3ccc(Cl)cc3)c[nH]c12 [Compound 28, 4-chloro-N-[(7-methyl-1H-indol-3-yl)methyl]benzenesulfonamide] | 29.5% of control

same assay, conditions: compound 100 uM + rotenone (approximately 1.25 μM), two hour incubation

Structure (SMILES) | POC (percent of control) MCF10A
Cc1cccc2c(CNS(=O)(=O)c3ccc(Cl)cc3)c[nH]c12 [Compound 28, 4-chloro-N-[(7-methyl-1H-indol-3-yl)methyl]benzenesulfonamide] | 81.1% of control

test system: MCF7 (breast cancer); assay: as above; format: cell-based; conditions: Homo sapiens, MCF7, 2 h; compound alone, 100 uM, two hour incubation, control DMSO; read-out: POC (percent of control) MCF7

Structure (SMILES) | activity at 100 µM [%]
Cc1cccc2c(CNS(=O)(=O)c3ccc(Cl)cc3)c[nH]c12 [Compound 28, 4-chloro-N-[(7-methyl-1H-indol-3-yl)methyl]benzenesulfonamide] | 79

same assay, conditions: compound 100 uM + 2DG (about 10-20 mM), two hour incubation

Structure (SMILES) | POC (percent of control) MCF7
Cc1cccc2c(CNS(=O)(=O)c3ccc(Cl)cc3)c[nH]c12 [Compound 28, 4-chloro-N-[(7-methyl-1H-indol-3-yl)methyl]benzenesulfonamide] | 60.7% of control

same assay, conditions: compound 100 uM + rotenone (approximately 1.25 μM), two hour incubation

Structure (SMILES) | POC (percent of control) MCF7
Cc1cccc2c(CNS(=O)(=O)c3ccc(Cl)cc3)c[nH]c12 [Compound 28, 4-chloro-N-[(7-methyl-1H-indol-3-yl)methyl]benzenesulfonamide] | 53.5% of control

test system: T47D (breast cancer); assay: as above; format: cell-based; conditions: Homo sapiens, T47D, 2 h; compound alone, 100 uM, two hour incubation, control DMSO; read-out: POC (percent of control) T47D

Structure (SMILES) | activity at 100 µM [%]
Cc1cccc2c(CNS(=O)(=O)c3ccc(Cl)cc3)c[nH]c12 [Compound 28, 4-chloro-N-[(7-methyl-1H-indol-3-yl)methyl]benzenesulfonamide] | 66.1

same assay, conditions: compound 100 uM + 2DG (about 10-20 mM), two hour incubation

Structure (SMILES) | POC (percent of control) T47D
Cc1cccc2c(CNS(=O)(=O)c3ccc(Cl)cc3)c[nH]c12 [Compound 28, 4-chloro-N-[(7-methyl-1H-indol-3-yl)methyl]benzenesulfonamide] | 33.7% of control

same assay, conditions: compound 100 uM + rotenone (approximately 1.25 μM), two hour incubation

Structure (SMILES) | POC (percent of control) T47D
Cc1cccc2c(CNS(=O)(=O)c3ccc(Cl)cc3)c[nH]c12 [Compound 28, 4-chloro-N-[(7-methyl-1H-indol-3-yl)methyl]benzenesulfonamide] | 62.2% of control

test system: H293 (kidney cancer); assay: as above; format: cell-based; conditions: 2 h; compound alone, 100 uM, two hour incubation, control DMSO; read-out: POC (percent of control) H293

Structure (SMILES) | activity at 100 µM [%]
Cc1cccc2c(CNS(=O)(=O)c3ccc(Cl)cc3)c[nH]c12 [Compound 28, 4-chloro-N-[(7-methyl-1H-indol-3-yl)methyl]benzenesulfonamide] | 43.2

same assay, conditions: compound 100 uM + 2DG (about 10-20 mM), two hour incubation

Structure (SMILES) | POC (percent of control) H293
Cc1cccc2c(CNS(=O)(=O)c3ccc(Cl)cc3)c[nH]c12 [Compound 28, 4-chloro-N-[(7-methyl-1H-indol-3-yl)methyl]benzenesulfonamide] | 49% of control

same assay, conditions: compound 100 uM + rotenone (approximately 1.25 μM), two hour incubation

Structure (SMILES) | POC (percent of control) H293
Cc1cccc2c(CNS(=O)(=O)c3ccc(Cl)cc3)c[nH]c12 [Compound 28, 4-chloro-N-[(7-methyl-1H-indol-3-yl)methyl]benzenesulfonamide] | 43.3% of control

test system: BxPC3 (pancreatic cancer); assay: as above; format: cell-based; conditions: Homo sapiens, BXPC-3, 2 h; compound alone, 100 uM, two hour incubation, control DMSO; read-out: POC (percent of control) BxPC3

Structure (SMILES) | activity at 100 µM [%]
Cc1cccc2c(CNS(=O)(=O)c3ccc(Cl)cc3)c[nH]c12 [Compound 28, 4-chloro-N-[(7-methyl-1H-indol-3-yl)methyl]benzenesulfonamide] | 40.4

same assay, conditions: compound 100 uM + 2DG (about 10-20 mM), two hour incubation

Structure (SMILES) | POC (percent of control) BxPC3
Cc1cccc2c(CNS(=O)(=O)c3ccc(Cl)cc3)c[nH]c12 [Compound 28, 4-chloro-N-[(7-methyl-1H-indol-3-yl)methyl]benzenesulfonamide] | 41.8% of control

same assay, conditions: compound 100 uM + rotenone (approximately 1.25 μM), two hour incubation

Structure (SMILES) | POC (percent of control) BxPC3
Cc1cccc2c(CNS(=O)(=O)c3ccc(Cl)cc3)c[nH]c12 [Compound 28, 4-chloro-N-[(7-methyl-1H-indol-3-yl)methyl]benzenesulfonamide] | 44.6% of control
